Assays:
[1] = Compound evaluated for the inhibitory concentration of S49 Mouse Lymphoma T-cells; assay type: functional, cell-based
[2] = Compound along with 10 uM of erythro-9-(2-hydroxy-3-nonyl)adenine (EHNA) was tested against mouse lymphoma T-cells; assay type: functional

Structure (SMILES) | IC50 [1] | IC50 [2]
Nc1ncnc2c([C@@H]3O[C@H](CO)[C@@H](O)[C@H]3O)[nH]nc12 [FORMYCIN] | 2.3 µM | 0.03 µM
Nc1ncnc2c1ncn2[C@H]1C[C@H](O)[C@@H](CO)O1 [DEOXYADENOSINE] | 180 µM | 4.5 µM
Nc1ncnc2c([C@H]3C[C@H](O)[C@@H](CO)O3)n[nH]c12 | 13.5 µM | 9.3 µM

From ChEMBL document CHEMBL1123148, “Improved synthesis of 2'-deoxyformycin A and studies of its in vitro activity against mouse lymphoma of T-cell origin” (J Med Chem, 1985)
